Measured values taken from US20100120717A1, “KINASE INHIBITORS” (priority 2006, published 2010).

Molecular target: Aurora B/INCENP (Homo sapiens, UniProt Q96GD4)
Assay: Determination of inhibition of AIK: Aurora B/INCENP Direct Fluorescence Polarization (IMAP) assay
Assay type: biochemical
Settings: 10 uM ATP, 0.8 nM Aurora B/INCENP, 45 min at room temperature; read-out: IC50 of Exemplified Compounds Against AIK B
Protocol: Detection of the reaction product is performed by addition of Progressive IMAP binding reagent (Molecular Devices). Reaction product may be determined quantitatively by FP using an Analyst HT plate reader (Molecular Devices) with an excitation wavelength at 485 nm and emission at 530 nm and using a Fluorescein 505 dichroic mirror.
The assay reaction may be initiated as follows: 2 ul of (3×) 300 nM Fl-Peptide/30 uM ATP was added to each well of the plate, followed by the addition of 2 ul of (3×) inhibitor (2 fold serial dilutions for 11 data points for each inhibitor) containing 15% DMSO. Two microliters of (3×) 2.4 nM AuroraB/INCENP solution may be added to initiate the reaction (final enzyme concentration was 0.8 nM for Aurora B/INCENP). The reaction mixture may then be incubated at room temperature for 45 min, and quenched and developed by addition of 20 ul of 1 to 400 diluted Progressive IMAP binding reagent in 1× proprietary Progressive IMAP binding buffer A. Fluorescence polarization readings of the resulting reaction mixtures may be measured after a 60-minute incubation at room temperature.
IC50 values may be calculated by non-linear curve fitting of the compound concentrations and fluorescent polarization values to the standard IC50 equation.

Sequence of Aurora B/INCENP (Q96GD4 whole entry): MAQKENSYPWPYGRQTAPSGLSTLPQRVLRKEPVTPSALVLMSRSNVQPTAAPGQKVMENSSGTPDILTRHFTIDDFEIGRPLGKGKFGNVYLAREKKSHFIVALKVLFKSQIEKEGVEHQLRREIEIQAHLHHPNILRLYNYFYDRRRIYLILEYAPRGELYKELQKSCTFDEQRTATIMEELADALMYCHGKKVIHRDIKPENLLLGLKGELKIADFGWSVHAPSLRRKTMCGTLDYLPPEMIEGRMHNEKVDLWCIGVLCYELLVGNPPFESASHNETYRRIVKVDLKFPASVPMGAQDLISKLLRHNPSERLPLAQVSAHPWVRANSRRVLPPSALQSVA
Sequence of Aurora B/INCENP (Q9NQS7 whole entry partner): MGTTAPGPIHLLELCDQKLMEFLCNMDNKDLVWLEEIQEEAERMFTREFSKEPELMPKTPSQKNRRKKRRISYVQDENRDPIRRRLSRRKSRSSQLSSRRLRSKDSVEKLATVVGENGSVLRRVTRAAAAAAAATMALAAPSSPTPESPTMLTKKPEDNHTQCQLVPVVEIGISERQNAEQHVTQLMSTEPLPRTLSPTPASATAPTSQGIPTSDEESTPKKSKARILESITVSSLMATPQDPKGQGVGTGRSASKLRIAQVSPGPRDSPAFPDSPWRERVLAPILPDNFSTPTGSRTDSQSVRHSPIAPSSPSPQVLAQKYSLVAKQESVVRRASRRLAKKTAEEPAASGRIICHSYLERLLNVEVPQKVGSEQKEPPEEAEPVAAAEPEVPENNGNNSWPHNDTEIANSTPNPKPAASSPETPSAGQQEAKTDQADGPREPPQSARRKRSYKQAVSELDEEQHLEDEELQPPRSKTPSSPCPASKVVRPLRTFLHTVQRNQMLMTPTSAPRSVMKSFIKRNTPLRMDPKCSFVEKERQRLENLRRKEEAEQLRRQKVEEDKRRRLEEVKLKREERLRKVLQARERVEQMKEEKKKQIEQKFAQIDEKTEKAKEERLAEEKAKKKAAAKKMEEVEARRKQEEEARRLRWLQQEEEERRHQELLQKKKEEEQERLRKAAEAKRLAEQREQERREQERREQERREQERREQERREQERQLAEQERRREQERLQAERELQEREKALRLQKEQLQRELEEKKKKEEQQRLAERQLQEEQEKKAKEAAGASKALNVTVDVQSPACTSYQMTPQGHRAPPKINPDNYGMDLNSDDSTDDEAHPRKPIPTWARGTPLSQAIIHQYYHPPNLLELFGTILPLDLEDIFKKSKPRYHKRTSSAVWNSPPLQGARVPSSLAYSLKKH

IC50 | SMILES
≥ 11 nM | CCN1CCC(NC(=O)c2cc(-c3cccc(S(=O)(=O)CC)c3)c3c([nH]c4ncc(C)cc43)c2C)CC1 [Compound 105, N-(1-ethylpiperidin-4-yl)-5-(3-(ethylsulfonyl)phenyl)-3,8-dimethyl-9H-pyrido[2,3-b]indole-7-carboxamide]
≤ 5 nM | CCN(CCCOc1ccc(-c2cccc(S(=O)(=O)C3CC3)c2)c2c1[nH]c1ncc(C)cc12)CCOP(=O)(OC(C)(C)C)OC(C)(C)C [Compound 271, di-tert-butyl-2-((3-(5-(3-(cyclopropylsulfonyl)phenyl)-3-methyl-9H-pyrido[2,3-b]indol-8-yloxy)propyl)(ethyl)amino)ethyl phosphate]

SMILES | IC50
CCS(=O)(=O)c1cccc(-c2cnc(OCC3CCN(C)CC3)c3[nH]c4ncc(C)cc4c23)c1 [Compound 54, 5-(3-Ethanesulfonyl-phenyl)-3-methyl-8-(1-methyl-piperidin-4-ylmethoxy)-9H-dipyrido[2,3-b;4′,3′-d]pyrrole] | 6 to 10 nM
